Holding throughout (type): functional
For experiment [1], the species on record is Homo sapiens. As to the kind of experiment: Inhibitory activity against LPS-stimulated IL-1 beta release from human monocytes.
The species entered for experiment [2] is Homo sapiens. The experiment is described as follows: Compound was tested for inhibitory effect on LPS-stimulated IL-1 alpha release from human monocytes.
The species named for experiment [3] is Homo sapiens. The experiment is described as follows: Compound was tested for inhibitory effect on LPS-stimulated IL-8 release from human monocytes.
Experiment [4] is filed under the species Homo sapiens. As to the kind of experiment: Compound was tested for inhibitory effect on LPS-stimulated IL-6 release from human monocytes.
The species named for experiment [5] is Homo sapiens. The experiment is described as follows: Compound was tested for inhibitory effect on LPS-stimulated PGE-2 release from human monocytes.
Experiment [6] is filed under the species Homo sapiens. The experiment is described as follows: Compound was tested for inhibitory effect on LPS-stimulated TNF-alpha release from human monocytes.
The species named for experiment [7] is Homo sapiens. The experiment is described as follows: Compound was tested for inhibitory effect on LPS-stimulated IL-1 beta release from human monocytes.
The species named for experiment [8] is Homo sapiens. As to the kind of experiment: Compound was tested for inhibitory activity against LPS-stimulated IL-1 beta release from human monocytes at concentration 3000 nM.
Experiment [9] is filed under the species Homo sapiens. The experiment is described as follows: Compound was tested for inhibitory activity against LPS-stimulated IL-1 beta release from human monocytes; 80-700.

The text below walks through data of ChEMBL document CHEMBL1130726, “Novel cytokine release inhibitors. Part III: Truncated analogs of tripterine” (Bioorg Med Chem Lett, 1998).

The IC50 is the concentration at which inhibition is half-maximal. High values mean weaker potency, low ones greater potency. For orientation: inhibition means the drop in the measured response relative to a control, in per cent. Low values mean little suppression, high ones strong suppression.

SMILES strings stand for the structures.

For the compound `CC(=O)Oc1cc2c(c(C)c1OC(C)=O)CC=C1[C@@]3(C)CCC(=O)C(C)=C3CC[C@]12C`, in the experiment filed under Homo sapiens [1], half-maximal inhibition (IC50) required 80 nM.

Take `CC1=C(O)C(=O)C=C2C1=CC=C1[C@@]2(C)CC[C@@]2(C)[C@@H]3C[C@](C)(C(=O)O)CC[C@]3(C)CC[C@]12C` [CELASTROL]: the IC50 in the experiment filed under Homo sapiens [2] was 40 nM; in the experiment listed under Homo sapiens [3], 210 nM; in the experiment listed under Homo sapiens [1], 40 nM; in the experiment filed under Homo sapiens [4], 80 nM; in the experiment listed under Homo sapiens [5], 110 nM; in the experiment filed under Homo sapiens [6] it was 210 nM. The compound also displayed an IC50 in the experiment listed under Homo sapiens [7] of 40 nM.

`Cc1c(O)c(O)cc2c1CC=C1C(C)(C)C(=O)CCC12C` (stereo not drawn): the IC50 in the experiment listed under Homo sapiens [1] worked out at 300 nM.

For the compound `CC(=O)Oc1cc2c(c(C)c1OC(C)=O)CC(C(C)=O)=C1[C@@]2(C)CC[C@H]2OC(=O)C[C@]12C`, in the experiment filed under Homo sapiens [1], half-maximal inhibition (IC50) was put at 900 nM.

Consider `CC(=O)Oc1cc2c(c(C)c1OC(C)=O)CC=C1[C@@]2(C)CC[C@H]2OC(=O)C[C@]12C`, for which the IC50 in the experiment listed under Homo sapiens [1] was 200 nM.

In the experiment listed under Homo sapiens [1], `CC(=O)Oc1cc2c(c(C)c1OC(C)=O)CC=C1C(C)(C)C(=O)CCC12C` (stereo not drawn) returned an IC50 of 200 nM.

Regarding `COc1cc2c(c(C)c1OC)CCC(=O)C2C` (stereo not drawn), the IC50 in the experiment listed under Homo sapiens [2] was 240 nM; in the experiment filed under Homo sapiens [3], 1000 nM; in the experiment listed under Homo sapiens [4], 430 nM; in the experiment listed under Homo sapiens [5], 520 nM; in the experiment listed under Homo sapiens [6], 460 nM.

`CC(=O)Oc1cc2c(cc1OC(C)=O)[C@]1(C)CCC(=O)[C@](C)(Cc3ccc(C(=O)O)cc3)[C@H]1CC2` registered an inhibition at 3 µM in the experiment filed under Homo sapiens [8] of 16%.

On to `COc1cc2c(c(C)c1O)CC=C1C(C)(C)C(=O)CCC12C` (stereo not drawn), for which, in the experiment filed under Homo sapiens [1], the midpoint of inhibition, the IC50, lay at 700 nM.

Take `COc1cc2c(c(C)c1OC)C=CC1=C(C)C(=O)CCC12C` (stereo not drawn): the IC50 in the experiment filed under Homo sapiens [2] came to 130 nM; in the experiment listed under Homo sapiens [3], 480 nM; in the experiment filed under Homo sapiens [4], 340 nM; in the experiment filed under Homo sapiens [5] it was 450 nM; in the experiment filed under Homo sapiens [6], 190 nM.

In the experiment filed under Homo sapiens [1], `CCOC(=O)C[C@@]1(C)C(=O)CC[C@@]2(C)c3cc(OC(C)=O)c(OC(C)=O)cc3CC[C@H]12` displayed an IC50 of 2200 nM.

`CC(=O)Oc1cc2c(c(C)c1OC(C)=O)CC=C1C(C)(C)C(=O)CC[C@]12C` displayed an IC50 in the experiment listed under Homo sapiens [1] of 200 nM.

Compound `CC(=O)Oc1cc2c(c(C)c1OC(C)=O)CC=C1C(C)(C)[C@H](OC(C)=O)CC[C@]12C` gave an IC50 in the experiment listed under Homo sapiens [1] of 100 nM.

`CC(=O)Oc1cc2c(c(C)c1OC(C)=O)C=CC1=C(C)C(=O)CCC12C` (stereo not drawn): the IC50 turned out to be 220 nM in the experiment listed under Homo sapiens [2]; 930 nM in the experiment filed under Homo sapiens [3]; 700 nM in the experiment filed under Homo sapiens [1]; 400 nM in the experiment listed under Homo sapiens [4]; 600 nM in the experiment listed under Homo sapiens [5]; 500 nM in the experiment filed under Homo sapiens [6]. In the experiment filed under Homo sapiens [7], this compound returned an IC50 of 180 nM.

With `CC(=O)Oc1cc2c(cc1OC(C)=O)[C@]1(C)CC[C@H]3C(C)(C)C(=O)CC[C@]3(C)C1=CC2`, in the experiment filed under Homo sapiens [1], half-maximal inhibition (IC50) required 140 nM.

Consider `CC(=O)Oc1cc2c(c(C)c1OC(C)=O)CCC1=C(C)C(=O)CCC12C` (stereo not drawn), for which the IC50 in the experiment listed under Homo sapiens [2] came to 100 nM; in the experiment filed under Homo sapiens [3] it was 300 nM; in the experiment filed under Homo sapiens [1], 2400 nM; in the experiment filed under Homo sapiens [4] it was 250 nM; in the experiment listed under Homo sapiens [5], 200 nM; in the experiment listed under Homo sapiens [6] it was 190 nM. This compound gave a concentration for half-maximal inhibition (IC50) in the experiment listed under Homo sapiens [7] of 80 nM.

The compound `CC1=C(O)C(=O)C=C2C1=CC=C1C(C)(C)C(=O)CCC21C` (stereo not drawn) came in with an IC50 in the experiment listed under Homo sapiens [9] of 80 nM.
